# What was measured:
# [1] = Chronic oral OEA in high fat diet: plasma triglycerides and cholesterol; format: in vivo; details: C3H mice, 4 weeks; for Plasma triglycerides, change: P<0.05
# Text: The physiological and biochemical effects of chronic oral OEA administration were investigated. Mice were chronically fed with OEA, provided as a supplement during 4 weeks, to study the effect on body weight gain and cumulative food intake, among other parameters.
# Animals, diet and experimental design. Adult male C3H mice purchased at 8 weeks of age were individually housed and maintained ad libitum on different diets and water for 2 weeks. Seven mice were allocated in 3 groups by randomization by weight, and fed with a high fat diet (lipids represented 50% of daily energy) during 2 weeks. The composition of the high fat diet per kg was: 284.5 g of corn starch, 89.5 g of saccharose, 250 g of casein, 50 g of cellulose, 10 g of a mix of vitamins (V1001), 35 g of a mix of minerals (S10026) and 281 g of canola oil (UPAE, Jouy en Josas, France). Then, OEA was added to the diets at different levels to provide 0, 10, or 100 mg OEA/kg body weight. The mice were kept on each respective diet for 4 weeks. During the nutritional intervention, daily food intake was monitored and the mice were weighed 3 times a week.
# Sampling. At the end of the experimental period, mice were sacrificed by blood drawing after anesthesia with isoflurane. Plasma was obtained by centrifugation (1,000 g for 10 min at 4° C.). Mesenteric, epididymal, inguinal and peritoneal adipose depots, as well as liver, stomach, small intestine mucosa and gastrocnemian muscle were excised and frozen into liquid nitrogen. Plasma and organ samples were kept at −80° C. until analysis. Triglycerides, glucose, total cholesterol and HDL cholesterol were directly measured on plasma samples collected during the sacrifice by enzymatic procedures, using a Beckman Coulter Systems SYNCHRON LX 20 (Beckman Coulter, Fullerton, USA) (oxidase method, Beckman Coulter for glucose, GPO method, Beckman Coulter for TG, oxidase and esterase method, Beckman Coulter for cholesterol). HDL were isolated by specific solubilization, using a precipitation isolation kit (Beckman Coulter, Fullerton, USA).
# Statistical analysis. Results were determined as mean±standard error of the mean (SEM). Statistical analysis of physiological parameters was performed by one-way ANOVA on Statview software (SAS institute, Cary, USA). Statistical significance was set up at the P<0.05 level.
# [2] = test system: Phosphoenolpyruvate carboxykinase (PEP CK); test: Real-time PCR gene expression in peripheral tissues: PepCK; format: in vivo; details: liver; C57bl6j mice, high fat diet, 100 mg/kg/body weight in diet, 5 weeks
# Method: (§1) The expression of 45 genes was measured by real-time PCR in peripheral tissues to identify genes that were differentially expressed in response to oral administration of oleoylethanolamide (OEA) or a non-hydrolysable OEA analog (KDS 5104), which affect satiety, lipid metabolism, fat utilization, food intake, and body fat mass.
# (§2) Animals, diet, and experimental design. Adult male C57bl6j mice purchased at 8 weeks of age were individually housed and maintained ad libitum on high fat diet and water for 2 weeks. Seven mice were randomly allocated in 3 groups and fed with a high fat diet (lipids represented 50% of daily energy) for 2 weeks. […]
# (§3) RNA extraction and gene expression. […] The RNA concentration was determined on nanodrop from the absorbance at 260 nm. […] Real-time quantitative PCR (RT-qPCR) were performed on cDNA obtained as described above using a high through put system (Biomek 3000, Beckman & Coulter, Fullerton, USA) and a Lightcycler 480 (Roche/Hitachi, Basel, Switzerland) with SYBR Green Master mix+kit (Eurogentec, Philadelphia, USA). […] Values were expressed as ratio of RNA levels relative to control mice (diets with 0 mg of OEA/kg/body weight) using ΔΔ(Ct) (Livak K J & Schmittgen T D, 2001, Methods 25:402-8). Gene expression of the following genes was measured (abbreviation and GenBank Accession shown in parentheses). […]
# Leptin = test: Real-time PCR gene expression in peripheral tissues: leptin; format: in vivo; details: C57bl6j mice, high fat diet, 100 mg/kg/body weight in diet, 5 weeks
# Method: as §1
# (§4) Animals, diet, and experimental design. Adult male C57bl6j mice purchased at 8 weeks of age were individually housed and maintained ad libitum on high fat diet and water for 2 weeks. Seven mice were randomly allocated in 3 groups and fed with a high fat diet (lipids represented 50% of daily energy) for 2 weeks. For one kilogram, the composition of the high fat diet was: 235 g casein, 201 g saccharose, 3.5 g L-cystine, 85 g starch, 116 g maltodextrin, 60 g cellulose, 12 g vitamins mix (AIN-93M, UPAE, Jouy-en-Josas, France), 51.5 g mineral mix (AIN-93Vx, UPAE, Jouy-en-Josas, France), and 236 g lard. Then, either OEA or KDS 5104 was added to the diet at a concentration of 100 mg/kg/body weight. The mice were kept under treatment for 5 weeks.
# (§5) Sampling. At the end of the experimental period, mice were sacrificed by blood drawing (cardiac puncture) after anesthesia with isoflurane. Plasma was obtained by centrifugation (1,000 g for 10 min at 4° C.). Mesenteric, epididymal, inguinal and peritoneal adipose depots, as well as liver, stomach, small intestine mucosa, pancreas, and gastrocnemian muscle were removed and frozen into liquid nitrogen. Plasma, urine, feces, and organ samples were kept at −80° C. until analysis.
# (§6) RNA extraction and gene expression. Total RNA from liver, intestine mucous membrane, adipose tissues, gastrocnemian muscle, pancreas and stomach were extracted with TRIzol reagent (Invitrogen, Carlsbad, USA) according to the manufacturer's instruction. The RNA concentration was determined on nanodrop from the absorbance at 260 nm. Retro-transcription PCRs to synthesize cDNA were performed using an Applied Biosystem Thermal Cycler 2720 and Superscript II (Invitrogen, Carlsbad, USA) according to manufacturer's protocol. Real-time quantitative PCR (RT-qPCR) were performed on cDNA obtained as described above using a high through put system (Biomek 3000, Beckman & Coulter, Fullerton, USA) and a Lightcycler 480 (Roche/Hitachi, Basel, Switzerland) with SYBR Green Master mix+kit (Eurogentec, Philadelphia, USA). Primers for the selected genes were generated using online informatics assistance from the Lightcycler manufacturer (Roche). Databases used to identify the genes were (1) the NCBI database (GenBank) and (2) the IHOP (Information Hyperlinked over Protein) database (www.ihop-net.org/UniPub/iHOP/bng/). Values were expressed as ratio of RNA levels relative to control mice (diets with 0 mg of OEA/kg/body weight) using ΔΔ(Ct) (Livak K J & Schmittgen T D, 2001, Methods 25:402-8). Gene expression of the following genes was measured (abbreviation and GenBank Accession shown in parentheses).
# (§7) Statistical analysis. […] Statistical analysis of physiological parameters and gene expression data was performed by one-way ANOVA on Statview software (SAS Institute, Cary, USA). Daily food intake was analyzed using two-way ANOVA on Statview software. Statistical significance was set up at the P<0.05 level, the P<0.01 level and the P<0.001 level. For statistical analysis of the gene expression data, values were calculated relative to 18S expression for each mouse and gene.
# [3] = biological target: G-protein coupled cannabinoid receptor GPR119 (Homo sapiens, UniProt Q8TDV5); details: cited from earlier work
# G-protein coupled cannabinoid receptor GPR119, sequence (Q8TDV5 whole entry): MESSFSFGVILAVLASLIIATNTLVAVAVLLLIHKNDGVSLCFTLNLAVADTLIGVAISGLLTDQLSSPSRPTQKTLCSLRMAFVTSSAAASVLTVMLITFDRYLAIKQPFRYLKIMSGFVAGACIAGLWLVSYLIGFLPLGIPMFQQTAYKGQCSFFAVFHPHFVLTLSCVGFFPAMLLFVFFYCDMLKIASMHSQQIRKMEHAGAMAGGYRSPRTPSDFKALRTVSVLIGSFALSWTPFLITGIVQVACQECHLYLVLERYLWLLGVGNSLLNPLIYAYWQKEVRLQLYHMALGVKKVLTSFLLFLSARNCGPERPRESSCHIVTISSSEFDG
# [4] = test system: overall gene expression pattern; test: Multivariate statistical analysis of overall gene expression pattern; format: in vivo; details: C57bl6j mice, high fat diet, 100 mg/kg/body weight in diet, 5 weeks
# Method: as §1, §2, §3
# [5] = test system: Fatty acid amide hydrolase (FAAH); test: Real-time PCR gene expression in peripheral tissues: FAAH; format: in vivo; details: C57bl6j mice, high fat diet, 100 mg/kg/body weight in diet, 5 weeks
# Method: as §1, §4, §5, §6, §7
structure (smiles),measurement,setting,value
"CCCCCCCC/C=C\CCCCCCCC(=O)NCCO [OEA, N-oleoyl-ethanolamide]","Plasma triglycerides, change",[1]; 10 mg dose,−72%
same,plasma total cholesterol,[1]; 10 mg/kg,trend to decreased
same,"Plasma triglycerides, change",[1]; 100 mg dose,−59%
same,plasma total cholesterol (decrease),[1]; 100 mg/kg body weight,reached statistical significance
same,"PepCK l, ratio of RNA levels relative to control mice",[2],1.02
same,"leptin at ep, ratio of RNA levels relative to control mice",Leptin; epidydimal adipose tissue,1.22
same,"leptin at per, ratio of RNA levels relative to control mice",Leptin; peritoneal adipose tissue,3.44
same,"leptin s, ratio of RNA levels relative to control mice",Leptin; stomach,1.41
same,binding to GPR119,[3],can also bind
same,overall gene expression pattern (multivariate statistical analysis),[4],significant shift
same,"FAAH at ep, ratio of RNA levels relative to control mice",[5]; epidydimal adipose tissue,2.22
same,"FAAH at per, ratio of RNA levels relative to control mice",[5]; peritoneal adipose tissue,1.62
same,"FAAH i, ratio of RNA levels relative to control mice",[5]; proximal intestine,1.68
